Measurements published in US10906915B2, “Substituted pyrazoloazepin-4-ones and their use as phosphodiesterase inhibitors” (LEO Pharma A/S, priority 2016, dated 2021).

Each compound was assayed against human PDE4D catalytic domain (UniProt no. Q08499) (Homo sapiens (Human), UniProt Q08499) (assay: PDE4 assay (TR-FRET, FAM-cAMP cleavage)). Conditions: human PDE4D catalytic domain; molar concentration giving 50% inhibition of substrate cleavage; read-out: PDE4 IC50 range.
Sequence of human PDE4D catalytic domain (Q08499 380-740 limits assumed): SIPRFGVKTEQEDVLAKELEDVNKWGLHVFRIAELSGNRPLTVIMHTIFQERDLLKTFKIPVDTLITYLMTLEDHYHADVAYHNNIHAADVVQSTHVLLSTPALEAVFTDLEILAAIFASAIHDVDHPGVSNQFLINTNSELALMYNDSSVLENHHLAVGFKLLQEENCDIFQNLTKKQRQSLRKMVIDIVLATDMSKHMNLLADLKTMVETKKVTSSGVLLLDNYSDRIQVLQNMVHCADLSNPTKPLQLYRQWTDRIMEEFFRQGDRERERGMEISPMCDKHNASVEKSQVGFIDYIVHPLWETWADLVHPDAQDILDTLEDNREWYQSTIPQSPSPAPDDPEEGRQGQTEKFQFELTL
Format: biochemical
In short: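 Read-out is time-resolved FRET from Tb donor to FAM-AMP captured on trivalent-metal nanoparticles added to stop the reaction. Substrate was a mix of plain and FAM-labelled cAMP, cleaved by human PDE4D catalytic domain ([…]) with titrated compound; IC50 ranges (nM) versus controls.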
With `CCc1nn(CCCOC(=O)c2ccc(C)c(F)c2)c2c1C(=O)NCC1(CCOCC1)C2` [Example 32, 3-(3-ethyl-4-oxo-spiro[6,8-dihydro-5H-pyrazolo[4,3-c]azepine-7,4′-tetrahydropyran]-1-yl)propyl 3-fluoro-4-methyl-benzoate] the IC50 was under 100 nM.
`CCc1nn(CCCOC(=O)C2CCCC2)c2c1C(=O)NCC1(CCOCC1)C2` [Example 9, 3-(3-ethyl-4-oxo-spiro[6,8-dihydro-5H-pyrazolo[4,3-c]azepine-7,4′-tetrahydropyran]-1-yl)propyl cyclopentanecarboxylate] was tested, and the IC50 was under 100 nM.
Compound `CCc1nn(C[C@@H](C)COC(=O)c2ccc(F)cc2C(F)(F)F)c2c1C(=O)NCC1(CCOCC1)C2` [Example 222, [(2R)-3-(3-ethyl-4-oxo-spiro[6,8-dihydro-5H-pyrazolo[4,3-c]azepine-7,4′-tetrahydropyran]-1-yl)-2-methyl-propyl] 4-fluoro-2-(trifluoromethyl)benzoate] has an IC50 of under 100 nM.
`CCc1nn(CCCOC(=O)c2ccc(C(=O)N3CCCC3)cc2)c2c1C(=O)NCC1(CCOCC1)C2` [Example 145, 3-(3-ethyl-4-oxo-spiro[6,8-dihydro-5H-pyrazolo[4,3-c]azepine-7,4′-tetrahydropyran]-1-yl)propyl 4-(pyrrolidine-1-carbonyl)benzoate] gave an IC50 of 100 to 500 nM.
For `CCc1nn(CCCOC(=O)c2ccc(F)cc2C(F)(F)F)c2c1C(=O)NCC1(CCOCC1)C2` [Example 109, 3-(3-ethyl-4-oxo-spiro[6,8-dihydro-5H-pyrazolo[4,3-c]azepine-7,4′-tetrahydropyran]-1-yl)propyl 4-fluoro-2-(trifluoromethyl)benzoate], the IC50 was under 100 nM.
`CCc1nn(CCCOC(=O)c2ccc(F)cc2OC)c2c1C(=O)NCC1(CCOCC1)C2` [Example 71, 3-(3-ethyl-4-oxo-spiro[6,8-dihydro-5H-pyrazolo[4,3-c]azepine-7,4′-tetrahydropyran]-1-yl)propyl 4-fluoro-2-methoxy-benzoate] gave an IC50 of under 100 nM.
Work on `CCc1nn(CCCOC(=O)c2cccc(C(N)=O)c2)c2c1C(=O)NCC1(CCOCC1)C2` [Example 150, 3-(3-ethyl-4-oxo-spiro[6,8-dihydro-5H-pyrazolo[4,3-c]azepine-7,4′-tetrahydropyran]-1-yl)propyl 3-carbamoylbenzoate] yielded an IC50 of under 100 nM.
Work on `CCc1nn(C[C@@H](C)COC(=O)c2ccc(S(=O)(=O)N3CCN(C(C)=O)CC3)cc2)c2c1C(=O)NCC1(CCOCC1)C2` [Example 250, [(2R)-3-(3-ethyl-4-oxo-spiro[6,8-dihydro-5H-pyrazolo[4,3-c]azepine-7,4′-tetrahydropyran]-1-yl)-2-methyl-propyl] 4-(4-acetylpiperazin-1-yl)sulfonylbenzoate] yielded an IC50 of under 100 nM.
In the case of `CCc1nn(CCCOC(=O)c2cc(C(F)(F)F)ccc2C)c2c1C(=O)NCC1(CCOCC1)C2` [Example 105, 3-(3-ethyl-4-oxo-spiro[6,8-dihydro-5H-pyrazolo[4,3-c]azepine-7,4′-tetrahydropyran]-1-yl)propyl 2-methyl-5-(trifluoromethyl)benzoate], the IC50 is reported as under 100 nM.
`CCc1nn(C[C@@H](C)COC(=O)c2ccc(Cl)c(C(F)(F)F)c2)c2c1C(=O)NCC1(CCOCC1)C2` [Example 238, [(2R)-3-(3-ethyl-4-oxo-spiro[6,8-dihydro-5H-pyrazolo[4,3-c]azepine-7,4′-tetrahydropyran]-1-yl)-2-methyl-propyl] 4-chloro-3-(trifluoromethyl)benzoate] showed an IC50 of under 100 nM.
`CCc1nn(C[C@@H](C)COC(=O)c2ccc(F)c(OC)c2)c2c1C(=O)NCC1(CCOCC1)C2` [Example 193, [(2R)-3-(3-ethyl-4-oxo-spiro[6,8-dihydro-5H-pyrazolo[4,3-c]azepine-7,4′-tetrahydropyran]-1-yl)-2-methyl-propyl] 4-fluoro-3-methoxy-benzoate] was tested, and the IC50 was under 100 nM.
`CCc1nn(CCCOC(=O)c2ccc(Cl)cc2C(F)(F)F)c2c1C(=O)NCC1(CCOCC1)C2` [Example 121, 3-(3-ethyl-4-oxo-spiro[6,8-dihydro-5H-pyrazolo[4,3-c]azepine-7,4′-tetrahydropyran]-1-yl)propyl 4-chloro-2-(trifluoromethyl)benzoate] was tested, and the IC50 was under 100 nM.
`CCc1nn(CCCOC(=O)CCOC)c2c1C(=O)NCC1(CCOCC1)C2` [Example 8, 3-(3-ethyl-4-oxo-spiro[6,8-dihydro-5H-pyrazolo[4,3-c]azepine-7,4′-tetrahydropyran]-1-yl)propyl 3-methoxypropanoate] gave an IC50 of over 500 nM.
For `CCc1nn(CCCOC(=O)c2cc(C(F)(F)F)ccc2Cl)c2c1C(=O)NCC1(CCOCC1)C2` [Example 128, 3-(3-ethyl-4-oxo-spiro[6,8-dihydro-5H-pyrazolo[4,3-c]azepine-7,4′-tetrahydropyran]-1-yl)propyl 2-chloro-5-(trifluoromethyl)benzoate], the IC50 was under 100 nM.
`CCc1nn(CCCOC(=O)c2ccc(C)c(OC)c2)c2c1C(=O)NCC1(CCOCC1)C2` [Example 59, 3-(3-ethyl-4-oxo-spiro[6,8-dihydro-5H-pyrazolo[4,3-c]azepine-7,4′-tetrahydropyran]-1-yl)propyl 3-methoxy-4-methyl-benzoate] gave an IC50 of under 100 nM.
With `CCNC(=O)c1ccc(C(=O)OC[C@H](C)Cn2nc(CC)c3c2CC2(CCOCC2)CNC3=O)cc1` [Example 254, [(2R)-3-(3-ethyl-4-oxo-spiro[6,8-dihydro-5H-pyrazolo[4,3-c]azepine-7,4′-tetrahydropyran]-1-yl)-2-methyl-propyl] 4-(ethylcarbamoyl)benzoate] the IC50 was under 100 nM.
`CCc1nn(C[C@@H](C)COC(=O)c2ccc(S(=O)(=O)NC)cc2)c2c1C(=O)NCC1(CCOCC1)C2` [Example 3, [(2R)-3-(3-Ethyl-4-oxo-spiro[6,8-dihydro-5H-pyrazolo[4,3-c]azepine-7,4′-tetrahydro-pyran]-1-yl)-2-methyl-propyl] 4-(methylsulfamoyl)benzoate] showed an IC50 of under 100 nM.
With `CCc1nn(CCCOC(=O)C2CCC(F)(F)CC2)c2c1C(=O)NCC1(CCOCC1)C2` [Example 49, 3-(3-ethyl-4-oxo-spiro[6,8-dihydro-5H-pyrazolo[4,3-c]azepine-7,4′-tetrahydropyran]-1-yl)propyl 4,4-difluorocyclohexane-carboxylate] the IC50 was 100 to 500 nM.
With `CCc1nn(CCCOC(=O)c2cccc(C(F)(F)F)c2C)c2c1C(=O)NCC1(CCOCC1)C2` [Example 104, 3-(3-ethyl-4-oxo-spiro[6,8-dihydro-5H-pyrazolo[4,3-c]azepine-7,4′-tetrahydropyran]-1-yl)propyl 2-methyl-3-(trifluoromethyl)benzoate] the IC50 was under 100 nM.

Same assay, conditions: read-out: PDE4 IC50 range
In the case of `CCc1nn(CC(C)(C)COC(=O)c2cccc(Cl)c2)c2c1C(=O)NCC1(CCOCC1)C2` [Example 291, [3-(3-ethyl-4-oxo-spiro[6,8-dihydro-5H-pyrazolo[4,3-c]azepine-7,4′-tetrahydropyran]-1-yl)-2,2-dimethyl-propyl] 3-chlorobenzoate], the IC50 is reported as under 100 nM.
Compound `CCc1nn(CCCCOC(=O)c2cccc(S(C)(=O)=O)c2)c2c1C(=O)NCC1(CCOCC1)C2` [Example 369, 4-(3-ethyl-4-oxo-spiro[6,8-dihydro-5H-pyrazolo[4,3-c]azepine-7,4′-tetrahydropyran]-1-yl)butyl 3-methylsulfonylbenzoate] has an IC50 of 100 to 500 nM.
`CCc1nn(CC2(COC(=O)c3cccc(F)c3)COC2)c2c1C(=O)NCC1(CCOCC1)C2` [Example 358, [3-[(3-ethyl-4-oxo-spiro[6,8-dihydro-5H-pyrazolo[4,3-c]azepine-7,4′-tetrahydropyran]-1-yl)methyl]oxetan-3-yl]methyl 3-fluorobenzoate] was tested, and the IC50 was under 100 nM.
Work on `CCc1nn(CC(C)(C)COC(=O)c2cccc(C#N)c2)c2c1C(=O)NCC1(CCOCC1)C2` [Example 287, [3-(3-ethyl-4-oxo-spiro[6,8-dihydro-5H-pyrazolo[4,3-c]azepine-7,4′-tetrahydropyran]-1-yl)-2,2-dimethyl-propyl] 3-cyanobenzoate] yielded an IC50 of under 100 nM.
`CCc1nn(CC(C)(C)COC(=O)c2cccc(C(=O)N3CCCC3)c2)c2c1C(=O)NCC1(CCOCC1)C2` [Example 344, [3-(3-ethyl-4-oxo-Spiro[6,8-dihydro-5H-pyrazolo[4,3-c]azepine-7,4′-tetrahydropyran]-1-yl)-2,2-dimethyl-propyl] 3-(pyrrolidine-1-carbonyl)benzoate] showed an IC50 of under 100 nM.
With `CCc1nn(CC(C)(C)COC(=O)c2ccc(S(C)(=O)=O)cc2)c2c1C(=O)NCC1(CCOCC1)C2` [Example 306, [3-(3-ethyl-4-oxo-spiro[6,8-dihydro-5H-pyrazolo[4,3-c]azepine-7,4′-tetrahydropyran]-1-yl)-2,2-dimethyl-propyl] 4-methylsulfonylbenzoate] the IC50 was under 100 nM.
`CCc1nn(CC(C)(C)COC(=O)c2cccc(C(=O)NC(C)C)c2)c2c1C(=O)NCC1(CCOCC1)C2` [Example 343, [3-(3-ethyl-4-oxo-spiro[6,8-dihydro-5H-pyrazolo[4,3-c]azepine-7,4′-tetrahydropyran]-1-yl)-2,2-dimethyl-propyl] 3-(isopropylcarbamoyl)-benzoate] gave an IC50 of under 100 nM.
`CCc1nn(CC(C)(C)COC(=O)c2ccc(C(=O)N3CCNCC3)cc2)c2c1C(=O)NCC1(CCOCC1)C2` [Example 335, [3-(3-ethyl-4-oxo-spiro[6,8-dihydro-5H-pyrazolo[4,3-c]azepine-7,4′-tetrahydropyran]-1-yl)-2,2-dimethyl-propyl] 4-(piperazine-1-carbonyl)benzoate] showed an IC50 of under 100 nM.
For `CCc1nn(CCCCOC(=O)c2ccc(S(=O)(=O)CC)cc2)c2c1C(=O)NCC1(CCOCC1)C2` [Example 371, 4-(3-ethyl-4-oxo-spiro[6,8-dihydro-5H-pyrazolo[4,3-c]azepine-7,4′-tetrahydropyran]-1-yl)butyl 4-ethylsulfonylbenzoate], the IC50 was 100 to 500 nM.
`CCc1nn(CCCCOC(=O)c2ccc(S(=O)(=O)NC)cc2)c2c1C(=O)NCC1(CCOCC1)C2` [Example 373, 4-(3-ethyl-4-oxo-spiro[6,8-dihydro-5H-pyrazolo[4,3-c]azepine-7,4′-tetrahydropyran]-1-yl)butyl 4-(methylsulfamoyl)benzoate] showed an IC50 of 100 to 500 nM.
